Tests used:
[1] = target: T1, human DP2 receptor (Homo sapiens, UniProt Q9Y5Y4); test: DP2/CRTH2 radioligand binding assay ([3H]PGD2); conditions: membranes of HEK293 cells expressing recombinant human DP2, 1 nM [3H]PGD2; read-out: hDP2
T1 construct: expressed in transfected cells
T1 sequence (Q9Y5Y4 1-395): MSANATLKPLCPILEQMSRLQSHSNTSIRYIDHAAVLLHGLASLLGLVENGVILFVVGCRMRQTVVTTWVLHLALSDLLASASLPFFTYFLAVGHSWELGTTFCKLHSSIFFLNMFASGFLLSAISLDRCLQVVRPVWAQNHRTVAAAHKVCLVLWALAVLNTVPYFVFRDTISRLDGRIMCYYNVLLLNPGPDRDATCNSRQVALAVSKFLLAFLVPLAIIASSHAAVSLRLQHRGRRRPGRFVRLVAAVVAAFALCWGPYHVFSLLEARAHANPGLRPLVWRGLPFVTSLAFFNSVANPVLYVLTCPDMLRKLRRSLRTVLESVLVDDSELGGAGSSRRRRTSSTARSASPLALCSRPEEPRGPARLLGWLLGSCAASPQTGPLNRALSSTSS
Method: The ability of a compound to bind to the human DP2 receptor is assessed via a radioligand binding assay using [^3H]PGD2. HEK293 cells stably expressing recombinant human DP2 are resuspended in 10 mM Hepes, 7.4 containing 1 mM DTT, lysed and centrifuged at 75,000×g to pellet the membranes. The membranes are resuspended in 10 mM Hepes, 7.4 containing 1 mM DTF and 10% glycerol to approximately 5 mg protein/ml. Membranes (2-10 […]) are incubated in 96-well plates with 1 nM [^3H]PGD2 and test compound in Assay Buffer (50 mM Hepes, 10 mM MnCl2, 1 mM EDTA, plus or minus 0.2% human serum albumin, pH 7.4) for 60 minutes at room temperature. The reactions are terminated by rapid filtration through Whatman GF/C glass fibre filter plates. The filter plates were pre-soaked in 0.33% polythylenimine for 30 minutes at room temperature then washed in Wash Buffer (50 mM Hepes, 0.5 M NaCl pH 7.4) prior to harvesting. After harvesting, the filter plates are washed 3 times with 1 ml cold Wash Buffer then dried. Scintillant is then added to the plates and the radioactivity retained on the filters is determined on a Packard TopCount (Perkin Elmer). Specific binding is determined as total radioactive binding minus non-specific binding in the presence of 10 μM PGD2. IC50s were determined using GraphPad prism analysis of drug titration curves.

[2] = target: T2, human DP1 receptor (Homo sapiens, UniProt Q13258); test: DP1 radioligand membrane binding assay ([3H]BWA868C); conditions: human platelet membranes, 2 nM [3H]BWA868C; read-out: hDP1
T2 construct: tissue Biological Specialty Corporation; host or cells: human platelets, membrane preparation
T2 sequence (Q13258 1-359): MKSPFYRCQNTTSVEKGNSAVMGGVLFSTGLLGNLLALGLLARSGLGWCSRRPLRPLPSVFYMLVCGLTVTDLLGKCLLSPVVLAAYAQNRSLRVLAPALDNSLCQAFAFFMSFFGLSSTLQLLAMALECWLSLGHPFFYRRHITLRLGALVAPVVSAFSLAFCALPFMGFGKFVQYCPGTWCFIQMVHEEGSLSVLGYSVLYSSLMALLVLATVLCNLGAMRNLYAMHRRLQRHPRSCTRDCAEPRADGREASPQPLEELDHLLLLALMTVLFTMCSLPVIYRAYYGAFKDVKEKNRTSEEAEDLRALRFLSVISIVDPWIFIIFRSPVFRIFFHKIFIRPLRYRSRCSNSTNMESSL
Method: The ability of a compound to bind to the human DP1 receptor was evaluated via a radioligand membrane binding assay using the DP1 selective synthetic ligand [^3H]BWA868C. Packed human platelets (Biological Specialty Corporation), were resuspended in 6 volumes of Hepes/HBSS buffer (10 mM Hepes, 1 mM DTT in Hanks Balanced Salt Solution (HBSS), lysed and centrifuged at 75,000×g to pellet the membranes. Membranes were resuspended in Hepes/HBSS buffer to approximately 12 mg protein/ml. Membranes (20 μg protein/well) are incubated in 96-well plates with 2 nM [^3H]BWA868C and test compound in Assay Buffer (50 mM Hepes, 10 mM MnCl2, 1 mM EDTA, plus or minus 0.2% human serum albumin, pH 7.4) for 60 minutes at room temperature. The reactions are terminated by rapid filtration through Whatman GF/C glass fibre filter plates. The filter plates were pre-soaked in 0.33% polyethylenimine for 30 minutes at room temperature then washed in Wash Buffer (50 mM Hepes, 0.5 M NaCl pH 7.4) prior to harvesting. After harvesting, the filter plates are washed 3 times with 1 ml cold Wash Buffer then dried. Scintillant is then added to the plates and the radioactivity retained on the filters is determined on a Packard TopCount (Perkin Elmer). Specific binding is determined as total radioactive binding minus non-specific binding in the presence of 10 μM BW A868C. IC50s were determined using GraphPad prism analysis of drug titration curves.

For `Cc1nnc([S+]([O-])Cc2cc(Br)ccc2Oc2cccc(CC(=O)O)c2)s1` (stereo not shown) [Compound 1-34, {3-[4-Bromo-2-(5-methyl-[1,3,4]thiadiazole-2-sulfinylmethyl)-phenoxy]-phenyl}-acetic acid], the IC50 [1] was < 0.3 µM and the IC50 [2] was > 1 µM.

With `COc1ccc(CC(=O)O)cc1Oc1ccc(Cl)cc1CSCc1ccccc1` [Compound 1-54, [3-(2-Benzylsulfanylmethyl-4-chloro-phenoxy)-4-methoxy-phenyl]-acetic acid] the IC50 [1] was < 0.3 µM and the IC50 [2] was 0.3 to 1 µM.

`Cn1cc(-c2ccc(Oc3cccc(CC(=O)O)c3)c(CSc3ccccc3)c2)cn1` [Compound 1-57, {3-[4-(1-Methyl-1H-pyrazol-4-yl)-2-phenylsulfanylmethyl-phenoxy]-phenyl}-acetic acid] was tested, and the IC50 [1] was 0.3 to 1 µM and the IC50 [2] was > 1 µM.

`O=C(O)Cc1cccc(Oc2ccc(Br)cc2CSc2ccc3ccccc3n2)c1` [Compound 1-16, {3-[4-Bromo-2-(quinolin-2-ylsulfanylmethyl)-phenoxy]-phenyl}-acetic acid] gave an IC50 [1] of 0.3 to 1 µM and an IC50 [2] of 0.3 to 1 µM.

For `O=C(O)Cc1cccc(Oc2ccc(Br)cc2CS(=O)(=O)c2nccs2)c1` [Compound 1-25, {3-[4-Bromo-2-(thiazole-2-sulfonylmethyl)-phenoxy]-phenyl}-acetic acid], the IC50 [1] was 0.3 to 1 µM and the IC50 [2] was > 1 µM.

For `COc1ccc(CC(=O)O)cc1Oc1ccc(C(F)(F)F)cc1CSc1ccccc1` [Compound 1-4, [4-Methoxy-3-(2-phenylsulfanylmethyl-4-trifluoromethyl-phenoxy)-phenyl]-acetic acid], the IC50 [1] was < 0.3 µM and the IC50 [2] was > 1 µM.

For `O=C(O)Cc1cccc(Oc2ccc(Br)cc2C[S+]([O-])c2ccccn2)c1` (stereo not shown) [Compound 1-31, {3-[4-Bromo-2-(pyridine-2-sulfinylmethyl)-phenoxy]-phenyl}-acetic acid], the IC50 [1] was > 1 µM and the IC50 [2] was > 1 µM.

`COc1ccc(CC(=O)O)cc1Oc1ccc(-c2cnn(C)c2)cc1CSC(C)C` [Compound 1-63, {3-[2-Isopropylsulfanylmethyl-4-(1-methyl-1H-pyrazol-4-yl)-phenoxy]-4-methoxy-phenyl}-acetic acid] was tested, and the IC50 [1] was < 0.3 µM.

For `O=C(O)Cc1cccc(Oc2ccc(Br)cc2C[S+]([O-])c2ccc3ccccc3n2)c1` (stereo not shown) [Compound 1-32, {3-[4-Bromo-2-(quinoline-2-sulfinylmethyl)-phenoxy]-phenyl}-acetic acid], the IC50 [1] was < 0.3 µM and the IC50 [2] was > 1 µM.

With `CN(C)CC[S+]([O-])Cc1cc(Br)ccc1Oc1cccc(CC(=O)O)c1` (stereo not shown) [Compound 1-35, {3-[4-Bromo-2-(2-dimethylamino-ethanesulfinylmethyl)-phenoxy]-phenyl}-acetic acid] the IC50 [1] was > 1 µM and the IC50 [2] was > 1 µM.

In the case of `O=C(O)Cc1cccc(Oc2ccc(Br)cc2CSc2ccccc2)c1` [Compound 1-11, [3-(4-Bromo-2-phenylsulfanylmethyl-phenoxy)-phenyl]-acetic acid], the IC50 [1] is reported as < 0.3 µM and the IC50 [2] is reported as 0.3 to 1 µM.

`O=C(O)Cc1cccc(Oc2ccc(Br)cc2CS(=O)(=O)c2ccccn2)c1` [Compound 1-23, {3-[4-Bromo-2-(pyridine-2-sulfonylmethyl)-phenoxy]-phenyl}-acetic acid] was tested, and the IC50 [1] was 0.3 to 1 µM and the IC50 [2] was > 1 µM.

In the case of `COc1ccc(CC(=O)O)cc1Oc1ccc(C(F)(F)F)cc1C[S+]([O-])C(C)(C)C` (stereo not shown) [Compound 1-9, {4-Methoxy-3-[2-(2-methyl-propane-2-sulfinylmethyl)-4-trifluoromethyl-phenoxy]-phenyl}-acetic acid], the IC50 [1] is reported as > 1 µM and the IC50 [2] is reported as > 1 µM.

`COc1ccc(CC(=O)O)cc1Oc1ccc(C(F)(F)F)cc1CSC(C)(C)C` [Compound 1-3, [3-(2-tert-Butylsulfanylmethyl-4-trifluoromethyl-phenoxy)-4-methoxy-phenyl]-acetic acid] was tested, and the IC50 [1] was 0.3 to 1 µM and the IC50 [2] was > 1 µM.

With `O=C(O)Cc1cccc(Oc2ccc(Br)cc2C[S+]([O-])CCc2ccccc2)c1` (stereo not shown) [Compound 1-30, {3-[4-Bromo-2-(2-phenyl-ethanesulfinylmethyl)-phenoxy]-phenyl}-acetic acid] the IC50 [1] was < 0.3 µM and the IC50 [2] was > 1 µM.

In the case of `O=C(O)Cc1cccc(Oc2ccc(Br)cc2C[S+]([O-])c2nccs2)c1` (stereo not shown) [Compound 1-33, {3-[4-Bromo-2-(thiazole-2-sulfinylmethyl)-phenoxy]-phenyl}-acetic acid], the IC50 [1] is reported as < 0.3 µM and the IC50 [2] is reported as > 1 µM.

`CN(C)CCSCc1cc(Br)ccc1Oc1cccc(CC(=O)O)c1` [Compound 1-18, {3-[4-Bromo-2-(2-dimethylamino-ethylsulfanylmethyl)-phenoxy]-phenyl}-acetic acid] was tested, and the IC50 [1] was > 1 µM and the IC50 [2] was > 1 µM.

For `COc1ccc(CC(=O)O)cc1Oc1ccc(C(F)(F)F)cc1C[S+]([O-])c1ccccc1` (stereo not shown) [Compound 1-10, [3-(2-Benzenesulfinylmethyl-4-trifluoromethyl-phenoxy)-4-methoxy-phenyl]-acetic acid], the IC50 [1] was < 0.3 µM and the IC50 [2] was > 1 µM.

`COc1ccc(CC(=O)O)cc1Oc1ccc(-c2cnn(C)c2)cc1CS(=O)(=O)C(C)C` [Compound 1-64, {4-Methoxy-3-[4-(1-methyl-1H-pyrazol-4-yl)-2-(propane-2-sulfonylmethyl)-phenoxy]-phenyl}-acetic acid] gave an IC50 [1] of 0.3 to 1 µM.

For `CS(=O)(=O)c1ccc(-c2ccc(Oc3cccc(CC(=O)O)c3)c(CSc3ccccc3)c2)cc1` [Compound 1-58, [3-(4′-Methanesulfonyl-3-phenylsulfanylmethyl-biphenyl-4-yloxy)-phenyl]-acetic acid], the IC50 [1] was 0.3 to 1 µM and the IC50 [2] was < 0.3 µM.

In the case of `O=C(O)Cc1cccc(Oc2ccc(Br)cc2C[S+]([O-])c2ccccc2)c1` (stereo not shown) [Compound 1-28, [3-(2-Benzenesulfinylmethyl-4-bromo-phenoxy)-phenyl]-acetic acid], the IC50 [1] is reported as < 0.3 µM and the IC50 [2] is reported as > 1 µM.

With `O=C(O)Cc1cccc(Oc2ccc(Br)cc2COc2ccccc2)c1` [Compound 1-37, [3-(4-Bromo-2-phenoxymethyl-phenoxy)-phenyl]-acetic acid] the IC50 [1] was > 1 µM and the IC50 [2] was 0.3 to 1 µM.

With `COc1ccc(CC(=O)O)cc1Cc1ccc(NC(=O)C(C)(C)C)cc1CSC(C)(C)C` [Compound 1-107, {3-[2-tert-Butylsulfanylmethyl-4-(2,2-dimethyl-propionylamino)-benzyl]-4-methoxy-phenyl}-acetic acid] the IC50 [1] was < 0.3 µM.

In the case of `COc1ccc(CC(=O)O)cc1Oc1ccc(C(=O)c2ccccc2)cc1CSC(C)C` [Compound 1-83, [3-(4-Benzoyl-2-isopropylsulfanylmethyl-phenoxy)-4-methoxy-phenyl]-acetic acid], the IC50 [1] is reported as < 0.3 µM.

In the case of `COc1ccc(CC(=O)O)cc1Oc1ccc(NC(=O)C(C)(C)C)cc1COc1ccccc1` [Compound 1-118, {3-[4-(2,2-Dimethyl-propionylamino)-2-phenoxymethyl-phenoxy]-4-methoxy-phenyl}-acetic acid], the IC50 [1] is reported as 0.3 to 1 µM.

`COc1ccc(CC(=O)O)cc1Oc1ccc(NS(=O)(=O)c2cccc3c(N(C)C)cccc23)cc1CSC(C)(C)C` [Compound 1-119, {3-[2-tert-Butylsulfanylmethyl-4-(5-dimethylamino-naphthalene-1-sulfonylamino)-phenoxy]-4-methoxy-phenyl}-acetic acid] was tested, and the IC50 [1] was < 0.3 µM.
